Measured values reported in patent publication US20140037604A1, “NUTRITIONAL COMPOSITIONS COMPRISING ALPHA-HYDROXYISOCAPROIC ACID” (NESTEC S.A., priority 2011, published 2014).
Entries after “also recorded” stand apart in the source; their conditions may differ. Like-named read-outs stand apart in the source and are kept apart here.

Assays:
[1] = test system: intestinal mammalian target of rapamycin (mTOR); settings: piglet stressed with LPS; cited from earlier work
[2] = test system: gastrocnemius of hindlimb-immobilized rats; assay: Muscle atrophy and recovery after unilateral hindlimb immobilization (gastrocnemius weight); format: in vivo, male Wistar rats; settings: for Muscle regrowth (gastrocnemius mass) 7 days after removal of the cast: 7 days immobilization + 7 days recovery, compared to control diet; for Decrease in gastrocnemius mass by immobilization: 7 days of cast immobilization, versus contralateral uncasted limb; for Mass of previously immobilized gastrocnemius compared to contralateral uncasted muscle: recovery day 14
Description: (§1) Water was provided ad libitum.

[3] = Organ weights of rats fed supplemented diets
Description: Animal protocols. The experiments described herein were broadly organized into two experimental series. Both studies used male Wistar rats (Charles River Breeding Laboratories, Cambridge, Mass.) which acclimated for 1 week in a controlled environment. Rats were shipped at 350-375 g and were approximately 12 wks of age. Water and standard rat chow were provide ad libitum.
The following custom diets were commercially prepared (Dytes, Bethlehem, Pa.): control diet (AIN93M), or isocaloric, isonitrogenous diets supplemented with α-hydroxy-isocaproic acid (HICA) or leucine (Leu) (Table 1). […] Therefore, animals were provided the dietary intervention for a period of 6 days prior to hindlimb immobilization.
The foot was positioned in plantar-flexion to induce maximal atrophy of the gastrocnemius and rats received 10 ml of 0.9% warmed (37° C.) sterile saline for resuscitation. […] Consequently, the contralateral limb served as the control in all subsequent experiments. After casting, rats were housed individually and were continued to be pair-fed for a period of 7 days. Water was provided ad libitum. On day 7 after casting, rats were anesthetized with pentobarbital and the cast atraumatically and rapidly (<2 min) removed (Stryker Instruments, Kalamzoo, Mich.).

[4] = test system: protein synthesis in gastrocnemius, liver and heart; assay: In vivo rate of tissue protein synthesis, flooding-dose technique with [3H]-L-phenylalanine; design: species or system male Wistar rats; settings: for In-vivo-determined tissue protein synthesis: Liver / In-vivo-determined tissue protein synthesis: Heart: freely fed rats; for In-vivo-determined tissue protein synthesis: Heart: no unit in table (text b163: nmol Phe/h/mg protein); for Immobilization (casting)-induced decrease in muscle protein synthesis: gastrocnemius, 7 days of immobilization
Experimental: as §1
The in vivo rate of protein synthesis in gastrocnemius, liver and heart (ventricle only) was determined using the flooding-dose technique, exactly as described (Vary T C and Lang C H, Assessing effects of alcohol consumption on protein synthesis in striated muscles. Methods Mol Biol 447: 343-355, 2008). A P-50 catheter was placed in the left carotid artery for the withdrawal of blood. Rats were injected intravenously (IV) with [^3H]-L-phenylalanine (Phe; 150 mM, 30 μCi/ml; 1 ml/100 g body weight) and blood was collected 15 min later for determining the plasma Phe concentration and radioactivity. Thereafter, tissues were rapidly excised and a portion freeze-clamped and then stored at −70° C. The rate of protein synthesis was calculated by dividing the amount of radioactivity incorporated into protein by the plasma Phe specific radioactivity. The specific radioactivity of the plasma Phe was measured by high performance liquid chromatography (HPLC) analysis of supernatant from trichloroacetic acid (TCA) extracts of plasma. In addition, samples of fresh muscle were homogenized for Western blot and analysis of selected proteins and another piece of tissue used for qRT-PCR, as described below.

[5] = Blood chemistry profile, metabolic substrates and hormone (serum); format: in vivo, male Wistar rats; settings: for Insulin: ELISA; for Insulin / HOMA-IR (homeostatic model assessment of insulin resistance) / Triglycerides / ALT / AST / Albumin / BUN / Bilirubin, total / Calcium / Chloride / Cholesterol / Creatinine / Glucose / LDH / Phosphorous / Potassium / Protein, total / Sodium: means ± SEM; for HOMA-IR (homeostatic model assessment of insulin resistance): calculated from insulin and glucose; for ALT / AST / Albumin / BUN / Bilirubin, total / Calcium / Chloride / Cholesterol / Creatinine / Glucose / LDH / Phosphorous / Potassium / Protein, total / Sodium: serum; for Sodium: all studies combined
Experimental: (§2) Blood was collected from the arterial catheter while rats were anesthetized and prior to injection of [^3H]-Phe. Blood was dispensed to determine standard hematological and biochemical endpoints. For hematology analyses, 250-500 μl of blood was dispensed to tubes containing EDTA (BD No. 365974; Fisher Scientific). Hematology analyses (Heska CBC-Diff Hematology Analyzer, Loveland, Colo.) included: red and white blood cell counts, hematocrit, hemoglobin, platelets, and differential leukocyte counts. Reticulocytes were counted manually using methylene blue stain. In addition, 900 μl blood was dispensed to a tube containing 100 μl of 0.109 M sodium citrate (BD Medical No. 363083; Fisher Scientific) for measurement of prothrombin time (BBL Fibrometer System, Cockeysville, Md.). The remaining blood was dispensed to a silicone-coated collection tube (BD No. 366381; Fisher Scientific) and allowed to clot. Clotted blood samples were centrifuged in a Beckman Coulter Allegra X-12R centrifuge at 3500 rpm for 5 min at 4° C., and the serum was collected and stored. Biochemical analyses on serum was performed on a Cobas Mira Plus Chemistry Analyzer (Diamond Diagnostics, Holliston, Mass.) and included: total bilirubin, glucose, aspartate aminotransferase, alanine aminotransferase, lactate dehydrogenase, albumin, calcium, creatinine, urea, phosphate, total cholesterol, chloride, and total protein. Serum sodium and potassium were analyzed by flame photometer (IL940; Instrumentation Laboratory, Lexington, Mass.). Triglycerides and free fatty acids (FFAs) were determined colorimetrically (Abcam, Cambridge, Mass.; Wako Diagnostics, Richmond, Va., respectively). Insulin was determined by ELISA (Alpco diagnostics, Salem, N.H.). The homeostatic model assessment of insulin resistance (HOMA-IR) was calculated to provide an estimate of whole-body insulin resistance (Turner R C, Holman R R, Matthews D, Hockaday T D and Peto J. Insulin deficiency and insulin resistance interaction in diabetes: estimation of their relative contribution by feedback analysis from basal plasma insulin and glucose concentrations. Metabolism 28: 1086-1096,1979).

[6] = Hematological profile; format: in vivo, male Wistar rats; settings: means ± SEM; for Hematocrit / Hemoglobin / Lymphocytes / MCH / MCV / Neutrophils / Platelets / RBC / WBC: blood; for Protime (prothrombin time): citrated blood
Experimental: as §2

[7] = rat, in vivo
[8] = supplemented diet, means ± SEM, all studies combined
[9] = means ± SEM, all studies combined, no unit in table
[10] = means ± SEM, all studies combined

SMILES: O=C(O)CCC(=O)C(=O)O [AKG, α-ketoglutarate]
- Crypt depth [1]: reduced crypt depth
- Phosphorylation of intestinal mTOR [1]: increased phosphorylation
- Villous height [1]: increased villous height

SMILES: CC(C)CC(O)C(=O)O (stereo not drawn) [HICA, α-hydroxy-isocaproic acid]
- Muscle regrowth (gastrocnemius mass) 7 days after removal of the cast [2]: not altered
- Decrease in gastrocnemius mass by immobilization [2]: 0.61 ± 0.09 g
- Mass of previously immobilized gastrocnemius compared to contralateral uncasted muscle [2]: did not differ; also recorded: complete recovery of mass
- Prevention or amelioration of the reduction in muscle mass produced by disuse ([2]; unilateral hindlimb immobilization): failed to prevent or ameliorate the accompanying reduction in muscle mass
- Organ weight: Liver ([3]; diet with α-HICA 50.4 g/kg or leucine 50 g/kg, means ± SEM, data combined from all studies): 12.00 ± 0.35 g
- Kidney weight compared between diets ([3]; rat, in vivo): did not differ
- Organ weight: Adrenal [3, 8]: 403 ± 16 mg
- Organ weight: Kidney [3, 8]: 1.22 ± 0.03 g
- Organ weight: Spleen [3, 8]: 960 ± 37 mg
- Organ weight: Testes [3, 8]: 1.82 ± 0.03 g
- Organ weight: Heart ([3]; ventricle only, supplemented diet, means ± SEM, all studies combined): 1.13 ± 0.02 g
- Increment in protein synthesis in the previously immobilized muscle ([4]; after a 7-day recovery period, not statistically significant versus control-fed rats): 0.77±0.17 nmol Phe/h/mg protein
- Protein synthesis in the previously immobilized muscle compared to contralateral uncasted muscle ([4]; day 14 of recovery): still increased
- Increment in muscle protein synthesis compared to other groups ([4]; day 14 of recovery, failed to achieve statistical significance): tended to be increased
- In-vivo-determined tissue protein synthesis: Liver [4, 9]: 24.41 ± 0.90
- In-vivo-determined tissue protein synthesis: Heart [4, 10]: 2.76 ± 0.11
- Immobilization (casting)-induced decrease in muscle protein synthesis [4]: no immobilization-induced decrease
- Immobilization (casting)-induced decrease in muscle protein synthesis ([4]; listed as αHICA): prevented the casting-induced decrease in muscle protein synthesis
- In-vivo-determined tissue protein synthesis: GAstrocnemius (control) ([4]; uncasted control muscle, means ± SEM, all studies combined, no unit in table): 1.26 ± 0.04
- Basal rate of protein synthesis in uncasted muscle, lower than control-fed rats ([4]; uncasted gastrocnemius): 10%
- Insulin [5]: 1.90 ± 0.15 a ng/ml
- HOMA-IR (homeostatic model assessment of insulin resistance) [5]: 27.1 ± 3.2 a
- Triglycerides [5]: 609 ± 51 µmol/L
- Markers of renal function (creatinine and BUN) compared to control values ([5]; rat, in vivo): generally unaffected
- Serum insulin concentration compared to control rats ([5]; rat, in vivo): did not differ
- ALT [5]: 24 ± 1 U/L
- AST [5]: 74 ± 4 U/L
- Albumin [5]: 3.31 ± 0.04 g/dL
- BUN [5]: 16.2 ± 0.6a mg/dL
- Bilirubin, total [5]: 0.5 ± 0.04 mg/dL
- Calcium [5]: 9.5 ± 0.1 mg/dL
- Chloride [5]: 101 ± 1 mmol/L
- Cholesterol [5]: 62 ± 3 mg/dL
- Creatinine [5]: 0.3 ± 0.02 mg/dL
- Glucose [5]: 223 ± 11 mg/dL
- LDH [5]: 232 ± 23 U/L
- Phosphorous [5]: 5.8 ± 0.2a mg/dL
- Potassium [5]: 4.9 ± 0.1a mmol/L
- Protein, total [5]: 5.0 ± 0.1 g/dL
- Sodium [5]: 141 ± 1 mmol/L
- Deleterious effects on whole-body and tissue-specific metabolic and hematological parameters ([5]; supplementation for up to 3 wks): no apparent deleterious effects
- Hematocrit [6]: 40 ± 1%
- Hemoglobin [6]: 15.2 ± 0.5 g/dL
- Lymphocytes [6]: 70 ± 2%
- MCH [6]: 17.9 ± 0.1 pg
- MCV [6]: 47 ± 1 fL
- Neutrophils [6]: 24 ± 2%
- Platelets [6]: 1207 ± 60 103/μl
- RBC [6]: 8.49 ± 0.31 106/μl
- WBC [6]: 2.5 ± 0.2 103/μl
- Protime (prothrombin time) [6]: 19 ± 1 s

SMILES: CC(C)C[C@H](N)C(=O)O [Leucine, leucine]
- Muscle regrowth (gastrocnemius mass) 7 days after removal of the cast [2]: not altered
- Decrease in gastrocnemius mass by immobilization [2]: 0.57 ± 0.08 g
- Mass of previously immobilized gastrocnemius compared to contralateral uncasted muscle ([2]; listed as Leu): a reduction in mass of the previously immobilized muscle was still detected; also recorded: partial recovery of gastrocnemius mass
- Protein synthesis in the previously immobilized muscle compared to contralateral uncasted muscle ([4]; day 14 of recovery, listed as Leu): not different from the uncasted muscle; also recorded: returned to basal values
- In-vivo-determined tissue protein synthesis: Liver [4, 9]: 22.51 ± 0.88
- In-vivo-determined tissue protein synthesis: Heart [4, 10]: 2.93 ± 0.11
- Immobilization (casting)-induced decrease in muscle protein synthesis ([4]; listed as Leu): decreased protein synthesis to the same extent; also recorded: failed to prevent the casting-induced decrease in protein synthesis
- Protein synthesis in the uncasted muscle compared to control-fed rats ([4]; uncasted gastrocnemius): did not differ
- Insulin [5]: 3.64 ± 0.32 c ng/ml
- HOMA-IR (homeostatic model assessment of insulin resistance) [5]: 47.7 ± 4.6b
- Triglycerides [5]: 667 ± 52 µmol/L
- HOMA-IR compared to control rats or those fed a HICA-containing diet ([5]; rat, in vivo): significantly greater
- Markers of renal function (creatinine and BUN) compared to control values ([5]; rat, in vivo): generally unaffected
- Serum phosphorus concentration, elevation compared to control values ([5]; rat, in vivo): 18%
- Serum potassium concentration compared to control- or HICA-fed rats ([5]; rat, in vivo): lower
- ALT [5]: 24 ± 1 U/L
- AST [5]: 68 ± 4 U/L
- Albumin [5]: 3.42 ± 0.03 g/dL
- BUN [5]: 16.2 ± 0.5a mg/dL
- Bilirubin, total [5]: 0.3 ± 0.02 mg/dL
- Calcium [5]: 9.6 ± 0.1 mg/dL
- Chloride [5]: 100 ± 1 mmol/L
- Cholesterol [5]: 63 ± 4 mg/dL
- Creatinine [5]: 0.3 ± 0.01 mg/dL
- Glucose [5]: 214 ± 8 mg/dL
- LDH [5]: 169 ± 21 U/L
- Phosphorous [5]: 7.0 ± 0.2b mg/dL
- Potassium [5]: 4.1 ± 0.1b mmol/L
- Protein, total [5]: 5.0 ± 0.1 g/dL
- Sodium [5]: 140 ± 1 mmol/L
- Kidney weight compared between diets [7]: did not differ
- Hematocrit [6]: 41 ± 1%
- Hemoglobin [6]: 15.7 ± 0.3 g/dL
- Lymphocytes [6]: 73 ± 3%
- MCH [6]: 17.9 ± 0.2 pg
- MCV [6]: 47 ± 1 fL
- Neutrophils [6]: 23 ± 3%
- Platelets [6]: 1206 ± 56 103/μl
- RBC [6]: 8.98 ± 0.28 106/μl
- WBC [6]: 2.7 ± 0.2 103/μl
- Protime (prothrombin time) [6]: 18 ± 1 s
